According to patent US20240398831A1, “COMPOSITIONS COMPRISING SMALL MOLECULE REGULATORS OF TUMOR IMMUNITY AND METHODS OF USING SAME” (Duke University, priority 2021, published 2024):

Tested on: CD4+ and CD8+ T cells
Assay: T cell proliferation assay and staining, direct treatment of T cells in vitro
Type: cell-based, mouse
Conditions: E2 (1 nM)+fulvestrant (100 nM), 3 days
From the text: FIG. 17C and FIG. 17H show the percentage of CD44^+CD69^+ activated CD8^+ T cells (FIG. 17C) and CD4^+ T cells (FIG. 17H) from experiments described above. FIG. 17D and FIG. 17I show the percentage of GZMB^+ activated CD8^+ T cells (FIG. 17D) and CD4^+ T cells (FIG. 17I) from experiments described above. FIG. 17E and FIG. 17J show the percentage of IFNγ^+ activated CD8^+ T cells (FIG. 17E) and CD4^+ T cells (FIG. 17J) from experiments described above. Data are expressed as individual data points and represented as mean±S.E.M. Significance was calculated by one way ANOVA.
T cell proliferation assay and staining. CD3+ T cells were isolated from the spleens of C57BL/6J or P-mel mice with magnetic bead-based T cell isolation kit (Cat #19851, StemCell Technologies). T cells from naïve mice were stained with 5 μM CFSE (Cat #C34554, ThermoFisher Scientific) for 5 minutes in PBS+5% CFS with rapid vortexing following which the cells were washed twice with PBS. Stained T cells were then counted and plated in 96-well plates coated with anti-CD3 antibody (0.5 μg/mL, Cat #19851, ThermoFisher Scientific) anti-CD28 antibody (1 μg/mL, Cat #16-0281-86, Thermo Fisher Scientific) at desired density (250,000 T cells/50,000 CD11b or BMDM) in the presence of IL2 (50 ng/mL) (Cat #212-12, PeproTech). […]

In the case of `C[C@]12CC[C@@H]3c4ccc(O)cc4C[C@@H](CCCCCCCCC[S+]([O-])CCCC(F)(F)C(F)(F)F)[C@H]3[C@@H]1CC[C@@H]2O` (stereo partly shown) [fulvestrant], the “proliferation or cytotoxic capabilities of CD4+ or CD8+ T cells” value is reported as “did not affect”.
